Source: PubChem BioAssay AID463074 (Broad Institute, 2010)
Activity calls are given as the source filed them.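 How the source made its calls: active means AC50 no more than tenfold above the top dose tested, or full inhibition at every dose with a flat fit (cut at about 19 µM in these data); inconclusive means flat curve fit with inhibition between 30% and 70%, or poor fit; inactive means AC50 more than tenfold above the top dose tested.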

System: HMLE_sh_eGFP viability, CellTiter-Glo luminescence, 72 h
Assay: cytotoxicity in HMLE control line with eGFP shRNA, dose response, counter-screen for HMLE_sh_ECad selective toxicity project, cell-based, HMLE_sh_eGFP, luminescence (AID 463074);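 further: counterscreen control line to flag general toxicity for the HMLE_sh_ECad screen; potency for loss of viability as luminescence drops below DMSO wells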

SMILES | AC50
Cc1cccc(CN2C(=O)/C(=C\c3ccc(C(=O)NCCCN4CCN(C)CC4)cc3)Oc3ccccc32)c1 | 3.62 µM
O=C(Nc1ccc(Cl)c(Cl)c1)O/N=C/c1ccncc1 | 10.1 µM
COc1ccc(/C=C/C(=O)c2ccc(O)cc2)cc1COc1ccc(F)cc1 | 4.37 µM
O=C(/C(N=Nc1cccc(C(F)(F)F)c1)=C(/O)c1cccs1)C(F)(F)F | 2.17 µM
COc1cc(F)c(C2=CC(=O)C[C@H](c3ccc(Cl)cc3)C2)cc1F | 3.48 µM
CCCc1ccc(C(=O)NNc2ccc(F)cc2)cc1 | 1.99 µM
Cc1cc(N=Nc2ccc3ccccc3c2)ccc1O | 6.83 µM
O=C1/C(=C\c2cc(Br)cc(Br)c2O)SC(=S)N1Cc1ccccc1 | 0.906 µM
CC(C)(C)OC(=O)[C@H](Cc1ccccc1)NC(=O)c1[nH]cnc1C(=O)Nc1cccc(Cl)c1 | 3.93 µM
CN(C)CCOc1ccc(C(C)(C)c2ccccc2)cc1 | 5.19 µM
Cn1nc([N+](=O)[O-])c(C(C#N)c2ccccn2)c(Cl)c1=O (stereo not given) | 15.3 µM
COC(=O)c1c(NC(=O)c2ccccc2)sc2c1CC(C)(C)OC2 | > 19.5 µM (inactive)
CCOc1ccc(NC(=O)Nc2ccc(Cc3ccncc3)cc2)cc1 | 7.84 µM
COCCNC(=O)NC1(C(F)(F)F)Oc2ccc(Cl)cc2O1 (stereo not given) | 17.6 µM
CCCCCCCCCCS(=O)(=O)N/N=C/c1ccc([N+](=O)[O-])cc1 | 12.9 µM
Cc1ccc(Oc2nc(CN3CCOCC3)nc3sc4c(c23)CCC(C)C4)cc1C (stereo not given) | 6.32 µM
Fc1ccc(C(c2ccc(F)cc2)N2CCN(C/C=C/c3ccccc3)CC2)cc1 | 7.18 µM
CC(C)(C)c1cc(C(=O)NNc2cc(C(F)(F)F)ccc2Cl)n(Cc2ccccc2)n1 | 4.18 µM
Oc1ccc(/C=C/c2nc(-c3ccccc3O)n(-c3ccccc3)n2)cc1 | 6.7 µM
CC(=O)c1ccc(N2CCN(c3ccc(S(=O)(=O)NCCCN(C)C)cc3[N+](=O)[O-])CC2)cc1 | 2.92 µM
CC1(C)C=Cc2c(ccc3c2OC[C@@H](c2ccc(O)cc2O)C3)O1 | 7.27 µM
O=c1c2ccccc2nc(/C=C/c2ccccc2)n1-c1ccccc1O | 10.7 µM
CCOC(=O)c1cnc(-n2nc(C)cc2C)nc1NNc1nc(-c2ccccc2)cc(-c2ccccc2)n1 | 3.25 µM
Cn1nc(-c2ccccc2F)c2cc(C(=O)Nc3ccc4c(c3)OCCO4)sc21 | > 19.5 µM (inactive)
COCCCn1c(SCc2cccc(C(F)(F)F)c2)nc2cc(OC)c(OC)cc2c1=N | 4.75 µM
CC(C)(C)c1cc(NCc2ccccn2)n2ncc(-c3ccccc3)c2n1 | 6.85 µM
O=C(/C=C/c1ccccc1)/C=C/c1ccccc1 | 2.84 µM

SMILES | AC50
CCN(CC(=O)Nc1ccc(NC(C)=O)cc1)C(=O)c1ccccc1CCc1ccccc1 | > 19.5 µM (inactive)
O=C1C2C(c3ccccc3)CC=CC2[C@H](c2ccc(C(F)(F)F)cc2)N1Cc1ccccc1 (stereo not given in full) | 5.89 µM
Nc1ccccc1N=Cc1c(O)n(CCC2=CCCCC2)c(=O)[nH]c1=O | > 19.5 µM (inactive)
CCN1CCN(c2cc(-c3ccccc3)nc3cc(-c4cccc(F)c4)nn23)CC1 | 5.65 µM
CN1CCN(CCCN2c3ccccc3Sc3ccc(Cl)cc32)CC1 | 5.25 µM
COc1ccc2sc(-c3ccc(SC)cc3)c(C#CCO)c2c1 | 8.45 µM
CC(=O)c1ccc(-c2cc([C@H]3[C@H]4C=CC[C@@H](C)[C@@H]4C(=O)N3Cc3ccccc3)ccc2F)cc1 | 6.87 µM
COc1ccc(Cn2c3ccc(OC)cc3c3nc4ccccc4nc32)cc1 | 17.8 µM
CCCCn1c(C2CCCCC2)nc2cc3[nH]c(=O)c(C(C)C)nc3cc21 | 1.52 µM
O=C(O)CCCCCN1C(=O)/C(=C\c2cn(-c3ccccc3)nc2-c2cccs2)SC1=S | 3.5 µM
COc1ccc(-c2sc3ccccc3c2/C=C/c2ccc(N)cc2)cc1 | 15.8 µM
FC(F)(F)c1cccc(NC(=S)N(CCCN2CCCC2)Cc2cccn2Cc2ccc(Cl)cc2)c1 | 3.51 µM
CCc1ccc(CNC(=O)C2CCN(c3nnc(C)c4c(C)n(-c5ccc(C)cc5)nc34)CC2)cc1 | 4.14 µM
CN(C(=S)Nc1ccc(SC(F)F)cc1)C(c1ccccc1)c1ccccc1 | 5.58 µM
Cc1cc(C)cc(C(=O)Nc2nnc(SCC(=O)N3CCCc4ccccc43)s2)c1 | > 19.5 µM (inactive)
COc1ccccc1NC(=O)Nc1ccc(-n2ccc(C(F)(F)F)n2)cc1 | 10.3 µM
Nc1c(C(=O)Nc2ccccc2)c2nc3ccccc3nc2n1CCCN1CCOCC1 | 6.77 µM
O=C(Nc1ccc(Cl)c(C(F)(F)F)c1)NC1CC2CCCC(C1)N2Cc1ccccc1 (stereo not given) | 6.8 µM
Cc1cc(C(=O)N/N=C/c2cc(Br)cc(Br)c2OC(=O)c2cccc(F)c2)n[nH]1 | 3.3 µM
O=C(N/N=C/c1cn(-c2cccs2)nc1-c1ccccc1)c1ccc(O)cc1 | 7.76 µM
CC(C)(c1ccccc1)c1ccc(OCCN2CCCC2)cc1 | 0.903 µM
O=C1[C@H]2CCCC[C@H]2C(=O)N1CCCCN1CCN(c2nsc3ccccc23)CC1 | 4.51 µM
O=C(NC12CC3CC(CC(C3)C1)C2)c1ccc([N+](=O)[O-])o1 | 7.04 µM
COc1cc(SC#N)ccc1N=Cc1c(C)[nH]n(-c2ccc(C)cc2)c1=O | 5.99 µM
Cc1cccc(Nc2nc(-c3ccc(O)cc3O)cs2)n1 | 7.5 µM
Clc1ccc2c(N/N=C/c3cccc(Br)c3)ccnc2c1 | 4.06 µM
COc1cc(OC)cc(-c2sc3ccc(OC)cc3c2C#CCCO)c1 | 7.93 µM

SMILES | AC50
CCCCCc1cc(=O)oc2c(C(CCN(CC)CC)c3cc(OC)c(OC)c(OC)c3)c(OC)cc(OC)c12 (stereo not given) | 14.3 µM
Cc1ccc(NC(=S)N(CCCN2CCCC2)Cc2cccn2Cc2ccc(Cl)cc2)cc1Cl | 4.92 µM
CC(C)=CCCC1(C)C=Cc2c(c(C)cc3c2[nH]c2cc(O)ccc23)O1 (stereo not given) | 6.29 µM
CCCCn1c(SCC(N)=O)nc2sc3c(c2c1=O)CCC3 | > 19.5 µM (inactive)
CC1CCN(S(=O)(=O)c2ccc3c(c2)C(=NO)c2cc(S(=O)(=O)N4CCC(C)CC4)ccc2-3)CC1 | 1.01 µM
Cc1cc(C)c2nc(NNC(=O)c3cc(-c4cccs4)nc4ccccc34)sc2c1 | 2.95 µM
O=c1c2ccccc2nc2n1CCc1c-2[nH]c2ccccc12 | > 19.5 µM (inactive)
Cc1ccc(C2C(/C=C3/SC(=S)NC3=O)=C(c3cccs3)Oc3ccccc32)cc1 (stereo not given) | 1.21 µM
Clc1ccc(N/N=C/c2cccnc2)cc1 | 7.94 µM
CCCc1nc2ccccc2c(C(=O)OCC(=O)Nc2ccc(S(=O)(=O)N3CCOCC3)cc2)c1CC | 5.86 µM
Cc1ccc(NC2=NCC(Cc3ccc(Br)cc3)S2)cc1 (stereo not given) | 6.73 µM
COC(=O)c1c(-c2ccc(OC)cc2)oc2ccc(-c3cc(OC)c(OC)c(OC)c3)cc12 | 4.97 µM
Cc1ccccc1CSc1ccc(-c2ccc3c(c2)OCO3)nn1 | 7.5 µM
CCCN(CCC)CCNC(=O)c1cc2c(-c3ccc(Cl)cc3)nn(C)c2s1 | 5.1 µM
O=C(Nc1ccc2c(c1)OCO2)c1cc(-c2ccc(O)cc2)on1 | 1.33 µM
COC(=O)c1ccc(COc2ccccc2/C=C(\C#N)C(=O)Nc2c(C)cc(C)cc2C)cc1 | 2.08 µM
CCCCC(=O)Nc1nc(C)c(-c2csc(Nc3cc(OC)ccc3OC)n2)s1 | 2.27 µM
O=C(NCc1cccnc1)/C(=C/c1ccc(-c2cccc(Cl)c2)o1)S(=O)(=O)c1ccccc1 | 2.66 µM
COc1ccc(-c2sc3ccccc3c2-c2ccc(OCCN3CCOCC3)cc2)cc1 | 1.51 µM
COc1cc(C#Cc2c(-c3cncn3C)n(C)c3ccc(-c4ccc(OC)nc4)cc23)cc(OC)c1 | 6.61 µM
COc1cccc(-c2sc3ccc(OC)cc3c2-c2ccc(OCCN(C)C)cc2)c1 | 3.59 µM
Cc1c(C2(O)CCCCC2)[nH]c2cc(C(F)(F)F)ccc12 | 5.83 µM
CCCc1c(-c2ccc(O)cc2)nn(-c2ccc(O)cc2)c1-c1ccc(O)cc1 | 6.1 µM
Cc1ccc(N2C(=O)NC(=O)/C(=C\C=C\c3ccco3)C2=O)cc1 | 4.54 µM
Cn1nnnc1Sc1ncnc2scc(-c3cccc4c3sc3ccccc34)c12 | 1.65 µM
Cc1ccn2c(Nc3ccccc3)c(-c3ccccn3)nc2c1 | 4.57 µM
Cc1ccccc1-c1ccc(CN2CCN(C)C(CCO)C2)cc1 (stereo not given) | 5.43 µM

SMILES | AC50
COc1ccc(C2c3ccc4ccccc4c3Oc3ncn(Cc4ccco4)c(=N)c32)cc1OC (stereo not given) | 7.58 µM
COc1cc(OC)c2cc(C(=O)N/N=C/c3cccc(OC)c3O)[nH]c2c1 | 6.08 µM
O=S(=O)(Nc1ccc(O)c2ccccc12)c1ccc(OC(F)(F)F)cc1 | 12.5 µM
OCCCn1c(CCNc2nc(-c3ccc(Cl)cc3)cs2)nc2cc(C(F)(F)F)ccc21 | 11.3 µM
Cc1cccc(NC(=O)c2nc[nH]c2C(=O)N[C@H](C)c2ccccc2)c1 | 7.13 µM
C[C@H](CO)N1C[C@H](C)[C@@H](CN(C)C(=O)Nc2ccc(C(F)(F)F)cc2)Oc2c(NC(=O)Nc3ccc(C(F)(F)F)cc3)cccc2C1=O | 4.26 µM
COC(=O)c1ccc(/C=C/c2c(-c3ccc(OC)cc3)oc3ccc(N4CCOCC4)cc23)cc1 | 4.19 µM
C=C(C)[C@@H]1CC[C@]2(C(=O)O)CC[C@]3(C)[C@H](CC[C@@H]4[C@@]5(C)CC[C@H](O)C(C)(C)[C@@H]5CC[C@]43C)[C@@H]12 | 3.97 µM
CCOC(=O)C(=O)NNc1ccc(Cl)cc1 | 1.37 µM
Nc1nc(Nc2ccccc2)nc(NC2CCCCC2)c1[N+](=O)[O-] | 6.81 µM
Cc1nn2c(COc3ccc(NC(=O)c4ccccc4Cl)cc3)nnc2c2ccccc12 | 3.08 µM
Cc1nnc2sc(SCc3cccc(Cl)c3)nn2c1=O | > 19.5 µM (inactive)
COc1cccc(-c2sc3ccccc3c2-c2ccc(OCCN3CCCC3)cc2)c1 | 2.81 µM
Cc1ccc(C(=O)CSc2nc(-c3ccccc3)ccc2C#N)cc1 | 2.47 µM
CCCCCCSc1ccc(-c2nc3cnccn3c2NCCCC)cc1 | 4.07 µM
O=C(NNc1ccccc1)C(=O)N1CCCCC1 | 3.16 µM
COc1ccc(C(=O)C2CCCN(C3CSCCSC3)C2)c(OC)c1 (stereo not given) | 4.74 µM
COc1c(Cl)cc(Cl)cc1/C=C/C(=O)c1ccc(NC(=O)c2cccs2)cc1 | 1.31 µM
COc1ccc(-c2oc3ccccc3c2C#Cc2cncn2C)cc1 | 4.37 µM
C=CCn1c2ccccc2c(=O)c2cc(C#Cc3cc(OC)cc(OC)c3)ccc21 | 11.1 µM
COc1ccc(OC)c(C(=O)CSc2nccc(-c3ccc(Br)cc3)n2)c1 | 1.31 µM
CCOc1ccc(C(=O)CCC(=O)N2CCN(c3ccc(O)cc3)CC2)cc1 | 2.49 µM
COc1cc(OC)cc(C(=O)NCCNc2nc3cc(C)cc(C)c3cc2C#N)c1 | > 19.5 µM (inactive)
CC12CCC3C(CC=C4CC(O)CCC43C)C1C/C(=C\c1ccccc1F)C2=O (stereo not given) | 4.04 µM
